In ChEMBL document CHEMBL3352340, “7-Amino-2-phenylpyrazolo[4,3-d]pyrimidine derivatives: structural investigations at the 5-position to target human A₁ and A(2A) adenosine receptors. Molecular modeling and pharmacological studies” (Eur J Med Chem, 2014):
Activity calls are given as the source filed them. The rule behind the calls is not given here.

How the values were obtained:
[1] = molecular target: T1, Adenosine receptor A1 (Homo sapiens) (UniProt P30542); conditions: CHO, 100 nM
T1 sequence (whole entry): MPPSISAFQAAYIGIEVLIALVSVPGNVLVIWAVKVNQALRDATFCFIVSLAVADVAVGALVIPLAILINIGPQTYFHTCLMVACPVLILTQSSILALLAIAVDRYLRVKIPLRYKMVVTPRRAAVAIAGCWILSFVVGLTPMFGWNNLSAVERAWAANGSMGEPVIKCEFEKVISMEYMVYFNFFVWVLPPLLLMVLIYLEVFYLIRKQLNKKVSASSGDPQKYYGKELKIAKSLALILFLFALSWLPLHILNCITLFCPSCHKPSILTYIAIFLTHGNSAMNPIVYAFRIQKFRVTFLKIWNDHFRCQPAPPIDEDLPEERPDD
Description: Antagonist activity at human adenosine A1 receptor expressed in CHO cells assessed as inhibition of CCPA-stimulated cAMP level at 100 nM by scintillation counting analysis

[2] = molecular target: T1, Adenosine receptor A1 (Homo sapiens); assay: Displacement of [3H]-DPCPX from human adenosine A1 receptor expressed in CHO cells at 1 uM by scintillation counting analysis relative to control; type: cell-based
Adenosine receptor A2a [3] = molecular target: T2, Adenosine receptor A2a (Homo sapiens, UniProt P29274); assay: Displacement of [3H]ZM241385 from human adenosine A2A receptor expressed in CHO cells at 1 uM by scintillation counting analysis relative to control; type: cell-based
T2 sequence (P29274 whole entry): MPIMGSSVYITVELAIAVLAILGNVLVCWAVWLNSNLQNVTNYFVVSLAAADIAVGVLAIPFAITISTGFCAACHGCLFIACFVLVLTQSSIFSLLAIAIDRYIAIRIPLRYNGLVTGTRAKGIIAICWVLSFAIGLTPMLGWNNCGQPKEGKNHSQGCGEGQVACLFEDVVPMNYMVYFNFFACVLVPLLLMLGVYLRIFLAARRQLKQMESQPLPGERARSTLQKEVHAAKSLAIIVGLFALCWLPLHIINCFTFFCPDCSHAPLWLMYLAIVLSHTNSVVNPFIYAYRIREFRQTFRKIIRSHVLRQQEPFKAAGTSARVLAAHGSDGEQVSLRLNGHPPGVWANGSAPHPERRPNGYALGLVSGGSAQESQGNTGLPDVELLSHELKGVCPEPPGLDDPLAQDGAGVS

[4] = molecular target: T3, Adenosine receptor A3 (Homo sapiens) (UniProt P0DMS8); assay: Displacement of [3H]AB-MECA from human adenosine A3 receptor expressed in CHO cells at 1 uM by scintillation counting analysis relative to control; type: cell-based
T3 sequence (whole entry): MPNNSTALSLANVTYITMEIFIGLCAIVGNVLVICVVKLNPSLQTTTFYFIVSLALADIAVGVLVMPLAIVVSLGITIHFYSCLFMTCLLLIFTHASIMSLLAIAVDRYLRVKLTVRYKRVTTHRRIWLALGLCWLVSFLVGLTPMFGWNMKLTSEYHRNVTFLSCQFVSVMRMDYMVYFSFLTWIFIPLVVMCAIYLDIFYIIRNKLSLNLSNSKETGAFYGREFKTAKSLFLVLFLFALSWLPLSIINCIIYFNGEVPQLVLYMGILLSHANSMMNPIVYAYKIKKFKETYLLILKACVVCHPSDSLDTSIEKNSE

[5] = molecular target: T4, Adenosine receptor A2b (Homo sapiens) (UniProt P29275); assay: Antagonist activity at human adenosine A2B receptor expressed in CHO cells assessed as inhibition of NECA-stimulated cAMP level at 1 uM by scintillation counting analysis; type: functional, cell-based
T4 sequence (whole entry): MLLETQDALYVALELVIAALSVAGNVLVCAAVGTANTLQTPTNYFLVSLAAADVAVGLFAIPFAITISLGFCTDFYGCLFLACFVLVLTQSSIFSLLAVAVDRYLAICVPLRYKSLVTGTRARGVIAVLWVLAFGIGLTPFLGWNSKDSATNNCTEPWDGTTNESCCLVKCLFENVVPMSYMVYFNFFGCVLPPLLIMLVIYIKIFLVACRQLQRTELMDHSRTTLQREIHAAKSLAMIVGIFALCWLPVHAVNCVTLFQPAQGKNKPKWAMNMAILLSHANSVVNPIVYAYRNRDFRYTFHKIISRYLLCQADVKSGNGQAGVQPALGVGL

Adenosine receptor A1 [6] = molecular target: T5, Adenosine receptor A1 (Homo sapiens, UniProt P30542); assay: Displacement of [3H]-DPCPX from human adenosine A1 receptor expressed in CHO cells by scintillation counting analysis; type: cell-based
T5 sequence (P30542 whole entry): T1 sequence (whole entry)

Adenosine receptor A2a [7] = molecular target: T2, Adenosine receptor A2a; assay: Displacement of [3H]ZM241385 from human adenosine A2A receptor expressed in CHO cells by scintillation counting analysis; type: cell-based
Adenosine receptor A3 = molecular target: T6, Adenosine receptor A3 (Homo sapiens, UniProt P0DMS8); assay: Displacement of [3H]AB-MECA from human adenosine A3 receptor expressed in CHO cells by scintillation counting analysis; type: cell-based
T6 sequence (P0DMS8 whole entry): T3 sequence (whole entry)

Adenosine receptor A2b = molecular target: T7, Adenosine receptor A2b (Homo sapiens, UniProt P29275); assay: Antagonist activity at human adenosine A2B receptor expressed in CHO cells assessed as inhibition of NECA-stimulated cAMP level by scintillation counting analysis; type: functional, cell-based
T7 sequence (P29275 whole entry): T4 sequence (whole entry)

Adenosine receptor A1 [8] = molecular target: T5, Adenosine receptor A1; assay: Antagonist activity at human adenosine A1 receptor expressed in CHO cells assessed as inhibition of CCPA-stimulated cAMP level by scintillation counting analysis; type: functional, cell-based
Adenosine receptor A2a [9] = molecular target: T2, Adenosine receptor A2a; assay: Antagonist activity at human adenosine A2A receptor expressed in CHO cells assessed as inhibition of NECA-stimulated cAMP level by scintillation counting analysis; type: functional, cell-based

| inhibition [1] | inhibition [2] [%] | inhibition (Adenosine receptor A2a [3]) [%] | inhibition [4] [%] | inhibition [5] [%] | Ki (Adenosine receptor A1 [6]) [µM] | Ki (Adenosine receptor A2a [7]) [µM] | Ki (Adenosine receptor A3) [µM] | IC50 (Adenosine receptor A2b) [µM] | IC50 (Adenosine receptor A1 [8]) [µM] | IC50 (Adenosine receptor A2a [9]) [µM] | Compound |
| --- | --- | --- | --- | --- | --- | --- | --- | --- | --- | --- | --- |
| Active |  |  |  |  |  |  |  |  |  |  | OC[C@H]1O[C@@H](n2cnc3c(NC4CCCC4)nc(Cl)nc32)[C@H](O)[C@@H]1O |
|  | 39 | 44 | 20 | 4 |  |  |  |  |  |  | Nc1nc(Cc2ccc(O)cc2)nc2cn(-c3ccccc3)nc12 |
|  | 38 | 26 | 39 | 21 |  |  |  |  |  |  | Cc1ccc(Cc2nc(N)c3nn(-c4ccccc4)cc3n2)cc1 |
|  |  |  |  | 1 | 0.312 | 0.521 | 0.435 |  |  |  | Nc1nc(Cc2cccc(O)c2)nc2cn(-c3ccccc3)nc12 |
|  | 49 | 1 | 11 | 1 |  |  |  |  |  |  | Nc1nc(Cc2ccc(Cl)cc2)nc2cn(-c3ccccc3)nc12 |
|  |  | 21 | 25 | 7 | 0.48 |  |  |  |  |  | Nc1nc(/C=C/c2ccccc2)nc2cn(-c3ccccc3)nc12 |
|  |  |  | 47 |  | 0.00131 | 0.153 |  | 0.387 | 0.012 |  | COc1ccccc1CCCc1nc(N)c2nn(-c3ccccc3)cc2n1 |
|  |  | 44 | 22 | 3 | 0.155 |  |  |  |  |  | Nc1nc(Cc2ccccc2Cl)nc2cn(-c3ccccc3)nc12 |
|  |  |  |  | 1 | 0.064 | 0.089 | 0.097 |  |  |  | Nc1nc(Cc2ccccc2O)nc2cn(-c3ccccc3)nc12 |
|  |  | 2 | 14 | 1 | 0.075 |  |  |  |  |  | Nc1nc(Cc2ccc3c(c2)OCO3)nc2cn(-c3ccccc3)nc12 |
|  |  | 14 | 37 | 1 | 0.09 |  |  |  |  |  | COc1cccc(Cc2nc(N)c3nn(-c4ccccc4)cc3n2)c1 |
|  |  |  | 33 |  | 0.00015 | 0.147 |  | 0.334 | 0.00241 |  | COc1cccc(CCCc2nc(N)c3nn(-c4ccccc4)cc3n2)c1 |
|  | 40 | 15 | 3 | 3 |  |  |  |  |  |  | C=CCOc1ccc(CCCc2nc(N)c3nn(-c4ccccc4)cc3n2)cc1 |
|  |  |  | 36 |  | 0.00054 | 0.102 |  | 0.247 | 0.00426 |  | Nc1nc(CCCc2ccccc2O)nc2cn(-c3ccccc3)nc12 |
|  | 41 | 31 | 11 | 21 |  |  |  |  |  |  | Cc1cccc(Cc2nc(N)c3nn(-c4ccccc4)cc3n2)c1 |
|  |  | 30 | 37 | 7 | 0.42 |  |  |  |  |  | Nc1nc(CCc2ccc(O)cc2)nc2cn(-c3ccccc3)nc12 |

| inhibition [1] | inhibition [2] [%] | inhibition (Adenosine receptor A2a [3]) [%] | inhibition [4] [%] | inhibition [5] [%] | Ki (Adenosine receptor A1 [6]) [µM] | Ki (Adenosine receptor A2a [7]) [µM] | Ki (Adenosine receptor A3) [µM] | IC50 (Adenosine receptor A2b) [µM] | IC50 (Adenosine receptor A1 [8]) [µM] | IC50 (Adenosine receptor A2a [9]) [µM] | Compound |
| --- | --- | --- | --- | --- | --- | --- | --- | --- | --- | --- | --- |
|  |  |  | 46 |  | 0.00022 | 0.146 |  | 0.314 | 0.00287 |  | Nc1nc(CCCc2cccc(O)c2)nc2cn(-c3ccccc3)nc12 |
|  | 14 | 3 | 2 | 8 |  |  |  |  |  |  | Nc1nc(CCCc2ccc(OCc3ccccc3)cc2)nc2cn(-c3ccccc3)nc12 |
|  | 32 | 6 | 42 | 1 |  |  |  |  |  |  | Nc1nc(Cc2cccc(Cl)c2)nc2cn(-c3ccccc3)nc12 |
|  |  |  | 20 | 5 | 0.018 | 0.722 |  |  |  |  | Nc1nc(CCCc2ccc(O)cc2)nc2cn(-c3ccccc3)nc12 |
|  |  |  | 4 |  | 0.08 | 0.41 |  | 0.63 |  |  | Nc1ncnc2cn(-c3ccccc3)nc12 |
|  | 1 | 21 | 41 | 1 |  |  |  |  |  |  | Nc1nc(Cc2cccc(C(F)(F)F)c2)nc2cn(-c3ccccc3)nc12 |
|  | 15 | 35 | 17 | 2 |  |  |  |  |  |  | Nc1nc(CCc2ccccc2)nc2cn(-c3ccccc3)nc12 |
|  |  |  |  | 1 | 0.375 | 0.213 | 0.572 |  |  |  | COc1ccccc1Cc1nc(N)c2nn(-c3ccccc3)cc2n1 |
|  |  | 13 | 22 | 9 | 0.38 |  |  |  |  |  | COc1ccc(CCc2nc(N)c3nn(-c4ccccc4)cc3n2)cc1 |
|  | 2 | 22 | 11 | 5 |  |  |  |  |  |  | CC(C)c1nc(N)c2nn(-c3ccccc3)cc2n1 |
|  |  |  | 12 | 42 | 0.00531 | 0.055 |  | 0.432 | 0.043 | 0.423 | Nc1nc(CCCc2ccccc2)nc2cn(-c3ccccc3)nc12 |
|  |  | 38 | 38 | 49 | 0.09 |  |  |  |  |  | CCc1nc(N)c2nn(-c3ccccc3)cc2n1 |
|  | 48 | 20 | 38 | 5 |  |  |  |  |  |  | COc1ccc(Cc2nc(N)c3nn(-c4ccccc4)cc3n2)cc1 |
|  | 49 | 50 | 13 | 1 |  |  |  |  |  |  | CC(C)Cc1nc(N)c2nn(-c3ccccc3)cc2n1 |
|  |  |  | 1 | 30 | 0.016 | 0.79 |  |  |  |  | COc1ccc(CCCc2nc(N)c3nn(-c4ccccc4)cc3n2)cc1 |
|  |  |  | 37 |  | 0.035 | 0.154 |  | 0.123 |  |  | Nc1nc(Cc2ccccc2F)nc2cn(-c3ccccc3)nc12 |
